In patent publication US20110189169A1, “COMBINATION OF HGF INHIBITOR AND PTEN AGONIST TO TREAT CANCER” (GALAXY BIOTECH, LLC, priority 2008, published 2011):

Columns and labels:
U-87 MG cells = test: Subcutaneous human glioblastoma U-87 MG tumor xenograft model; type: in vivo, athymic nude mice (BALB/c-nu/nu); conditions: HuL2G7 0.5 mg/kg i.v. days 12 and 18
Method: The combination effect of HuL2G7 with Rapamycin was examined in human glioblastoma U-87 MG tumor xenograft model. Female athymic nude mice (BALB/c-nu/nu, 30 animals) were purchased from Charles River Laboratories (Kanagawa, Japan). Mice were housed in a barrier facility with 12-h light/dark cycles and provided with food and tap water ad libitum and maintained for three weeks. U-87 MG cells (2.5×10^6 in 100 μL) were suspended with 50% Matrigel (BD Biosciences) buffered with Hanks. balanced salt solution (Invitrogen Corp, Carlsbad, Calif., USA) and inoculated subcutaneously into the right-flank of each mouse. After the tumor xenografts were established, at day 12 after inoculation, mice with tumors (approximately 95-272 mm^3) were randomized into groups of 4 (n=6) based on tumor volumes so as to minimize variation in tumor volumes. Then each group was treated with vehicle, HuL2G7, Rapamycin, or both drugs. […] Tumor volumes were assessed by bilateral vernier caliper measurement at days 12, 15, 18, 22, and 26 after inoculation and calculated using the formula, length×width^2×½, where length was taken to be the longest diameter across the tumor and width the corresponding perpendicular. Tumor growth was evaluated by the following formula: T/C (%)=ΔT/ΔC×100, where ΔT and ΔC are changes in tumor volume for each treated and vehicle control group. […]

cMet receptor = cMet receptor (Homo sapiens, UniProt P08581); conditions: read-out: Kd, high affinity binding site; cited from earlier work
cMet receptor, sequence (P08581 25-1390): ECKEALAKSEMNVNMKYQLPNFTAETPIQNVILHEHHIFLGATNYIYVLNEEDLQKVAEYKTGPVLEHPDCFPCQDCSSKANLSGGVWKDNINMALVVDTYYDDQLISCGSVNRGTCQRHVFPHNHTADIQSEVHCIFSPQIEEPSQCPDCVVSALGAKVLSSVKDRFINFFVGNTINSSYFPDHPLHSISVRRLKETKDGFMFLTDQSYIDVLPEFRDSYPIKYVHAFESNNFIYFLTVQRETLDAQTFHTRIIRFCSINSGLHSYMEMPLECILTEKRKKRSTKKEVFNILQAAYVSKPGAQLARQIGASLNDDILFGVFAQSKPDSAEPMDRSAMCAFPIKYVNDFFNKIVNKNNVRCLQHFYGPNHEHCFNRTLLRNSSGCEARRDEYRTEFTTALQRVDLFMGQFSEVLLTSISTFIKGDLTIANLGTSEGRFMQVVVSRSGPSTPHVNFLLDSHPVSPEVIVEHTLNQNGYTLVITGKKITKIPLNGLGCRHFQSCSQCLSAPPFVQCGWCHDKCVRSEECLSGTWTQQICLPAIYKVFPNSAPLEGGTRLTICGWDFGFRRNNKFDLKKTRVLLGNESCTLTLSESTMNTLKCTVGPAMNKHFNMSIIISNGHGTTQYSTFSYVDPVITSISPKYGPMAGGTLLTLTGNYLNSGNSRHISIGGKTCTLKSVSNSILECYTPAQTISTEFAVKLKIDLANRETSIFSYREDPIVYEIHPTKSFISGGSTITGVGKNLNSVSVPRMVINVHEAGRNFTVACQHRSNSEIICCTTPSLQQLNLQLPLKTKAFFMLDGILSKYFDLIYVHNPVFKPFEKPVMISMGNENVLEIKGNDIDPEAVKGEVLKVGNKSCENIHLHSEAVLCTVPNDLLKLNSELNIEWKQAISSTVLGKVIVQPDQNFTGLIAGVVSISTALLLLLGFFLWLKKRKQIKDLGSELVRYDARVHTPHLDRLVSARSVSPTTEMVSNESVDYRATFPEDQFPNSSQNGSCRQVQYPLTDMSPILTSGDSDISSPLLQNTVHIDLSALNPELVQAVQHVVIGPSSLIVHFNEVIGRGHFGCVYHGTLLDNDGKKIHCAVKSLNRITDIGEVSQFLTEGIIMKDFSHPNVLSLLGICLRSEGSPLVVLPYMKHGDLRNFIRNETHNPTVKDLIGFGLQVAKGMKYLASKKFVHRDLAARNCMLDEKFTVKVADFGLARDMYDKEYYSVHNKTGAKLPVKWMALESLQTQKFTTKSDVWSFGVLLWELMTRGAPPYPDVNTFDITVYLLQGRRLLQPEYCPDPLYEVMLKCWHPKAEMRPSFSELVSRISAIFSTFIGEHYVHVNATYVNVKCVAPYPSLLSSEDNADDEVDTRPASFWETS

[1] = biological target: heparin sulfate proteoglycans (HSPG); conditions: read-out: Kd, low affinity binding site; cited from earlier work

general observations of animals (U-87 MG cells; Rapamycin 0.1 mg/kg i.p. days 12-26, or both) | Compound | T/C (%)=ΔT/ΔC×100 (U-87 MG cells; day 26, Rapamycin 0.1 mg/kg i.p. once-daily days 12-26) [%] | Kd (cMet receptor) [nM] | Kd [1] [nM]
no abnormalities in general observations | CO[C@H]1C[C@@H]2CC[C@@H](C)[C@@](O)(O2)C(=O)C(=O)N2CCCC[C@H]2C(=O)O[C@H]([C@H](C)C[C@@H]2CC[C@@H](O)[C@H](OC)C2)CC(=O)[C@H](C)/C=C(\C)[C@@H](O)[C@@H](OC)C(=O)[C@H](C)C[C@H](C)/C=C/C=C/C=C/1C [rapamycin, reference compound] | 9.6 |  | 
 | HGF: Human Hepatocyte Growth Factor, 102 kDa heterodimeric polypeptide, ligand of cMet |  | 0.2 | 1
